In US20220151993A1, “TREATMENT OF ANXIETY AND DEPRESSION” (NEW YORK UNIVERSITY, priority 2020, published 2022):

Columns and labels:
[1] = system: patients with cancer-related psychiatric and existential distress; assay: Spielberger State-Trait Anxiety Inventory (STAI), long-term follow-up; format: in vivo, human; conditions: single 0.3 mg/kg dose with psychotherapy; for STAI State Anxiety: baseline 43.94; for STAI Trait Anxiety: baseline 47.81
Method: (§1) The present example assesses the long-term effects of a single dose of psilocybin (0.3 mg/kg) in conjunction with psychotherapy in patients with cancer-related psychiatric and existential distress.
(§2) 29 participants were randomly assigned to one of two groups: psilocybin (0.3 mg/kg) on the first medication session followed by niacin (250 mg) on the second session (i.e. psilocybin-first group), or niacin (250 mg) on the first medication session followed by psilocybin (0.3 mg/kg) on the second session (i.e. niacin-first group). Psilocybin and niacin were administered in identically appearing gelatin capsules.
(§3) Participants received three 2-hour preparatory psychotherapy sessions in order to review the purpose and intention of participation in the study, treatment goals, and structure of the treatment sessions. Medications were administered in 8-hour treatment sessions which included a discussion of the participant's subjective experience with the treatment team to consolidate the memory of the experience and to begin the process of post-integrative psychotherapy. Participants also received three 2-hour post-medication integration sessions (repeated after the second dosing session) to further consolidate the memory of the experience and to continue the process of psychological integration. All psychotherapy treatment sessions were delivered by a dyadic therapy team trained in a blend of psychotherapies with an evidence base to support their use in cancer patients (drawing upon principles of palliative care therapy, existential psychotherapy, cognitive-behavioural therapy, psychoanalysis therapy, and transpersonal psychology) and were taught about the safety and clinical pharmacology of psilocybin. Each therapy dyad underwent six confidential one-to-one sessions to build their alliance and exchange ideas about psychedelic therapy. The trial employed a crossover design at seven weeks following the first drug administration, with an outcome assessment at 6.5 months (26 weeks) following the second drug administration (i.e. after the crossover).
(§4) Two long-term follow ups (LTFUs) were carried out to assess the continued effect of psilocybin. Of the original 29 participants, all 16 participants who were not deceased at the time of LTFU were contacted (the remaining 13 participants were deceased). Of the 16 participants who were contacted, 15 agreed to participate in the LTFU and completed measures through a secure online portal. One participant died (from cancer-related complications) after completing the first LTFU and prior to the second LTFU, leaving us with 14 participants at the second LTFU. The first and second LTFUs occurred on average 3.2 years (range 2.3-4.5 years) and 4.5 years (range 3.5-5.5 years) following the participants' psilocybin dosing date, respectively.
Primary outcomes (anxiety and depression) were measured according to the following methods: • Hospital Anxiety and Depression Scale (HADS) (Zigmond and Snaith, 1983)—this is widely used in hospital settings to screen for the severity of anxiety and depression. It contains 14 questions rated on a four-point scale (total score (HAD-T) ranges from 0-56). Subscale scores can be calculated for depression (HADS-D) and anxiety (HADS-A). […] The HADS has shown good reliability (Cronbach's a ranging from 0.80-0.93) and has been well validated (Herrmann, 1997). • Beck Depression Inventory-II (BDI-II) (Beck et al., 1988)—a widely used self-report screening measure for depression. […]

[2] = system: patients with cancer-related psychiatric and existential distress; assay: Beck Depression Inventory-II (BDI-II), long-term follow-up; format: in vivo, human; conditions: single 0.3 mg/kg dose with psychotherapy, baseline 14.19
Method: as §1, §2
as §3, with “Each therapy dyad underwent six confidential one-to-one sessions to build their alliance and exchange ideas about psychedelic therapy. The trial employed a crossover design at seven weeks following the first drug administration, with an outcome assessment at 6.5 months (26 weeks) following the second drug administration (i.e. after the crossover).” left out
Primary outcomes (anxiety and depression) were measured according to the following methods: • Hospital Anxiety and Depression Scale (HADS) (Zigmond and Snaith, 1983)—this is widely used in hospital settings to screen for the severity of anxiety and depression. […] Subscale scores can be calculated for depression (HADS-D) and anxiety (HADS-A). […]

[3] = system: patients with cancer-related psychiatric and existential distress; assay: Secondary questionnaire domains (social relationships, environmental, physical, psychological health), long-term follow-up; format: in vivo, human; conditions: single 0.3 mg/kg dose with psychotherapy; for Psychological health: baseline 13.58; for Social relationships: baseline 13.91; for Physical health: baseline 15.00; for Environmental health: baseline 15.50
Method: as §1, §2, §3, §4
Regarding all analyses for both the primary and secondary outcome assessments, both the psilocybin-first and niacin-first dose sequence groups were collapsed and combined into one group. Reasons for this decision included the crossover design, which prevented valid between-group comparisons subsequent to the crossover, and a need to increase power given the modest sample size.
The long-terms effects of psilocybin on variables of interest were evaluated using four repeated measures regressions, estimated within the mixed effect repeated measurement (MMRM) model. Planned within-subject t-tests (Tukey's post-hoc) were conducted comparing scores at baseline to the following time points for primary and secondary outcomes: 6.5 months after the second medication session, and the first and second LTFU points. Planned within subject t-tests were also conducted comparing scores at parent study endpoint (6.5 months) to the two LTFU points.

[4] = system: patients with cancer-related psychiatric and existential distress; assay: Primary outcome measures (anxiety and depression) combined: effect sizes, clinical response and remission rates; format: in vivo, human
Method: as §1, §2, §3, §4
Primary outcomes (anxiety and depression) were measured according to the following methods: • Hospital Anxiety and Depression Scale (HADS) (Zigmond and Snaith, 1983)—this is widely used in hospital settings to screen for the severity of anxiety and depression. It contains 14 questions rated on a four-point scale (total score (HAD-T) ranges from […]). Subscale scores can be calculated for depression (HADS-D) and anxiety (HADS-A). […] The HADS has shown good reliability (Cronbach's a ranging from 0.80-0.93) and has been well validated (Herrmann, 1997). • Beck Depression Inventory-II (BDI-II) (Beck et al., 1988)—a widely used self-report screening measure for depression. The BDI-II consists of 21 questions about depressive symptoms experienced over the past two weeks rated on a […] scale (total score ranges from 0-63). Scores above 12 indicate possible clinical depression. This measure has shown good reliability (internal consistency of 0.90) and factorial validity (Storch et al. 2004). • Spielberger State-Trait Anxiety Inventory (STAI) (Spielberger, 1983)—a well-known measure of anxiety consisting of scales for state (STAI-S) and trait-level anxiety (STAI-T). […]

[5] = system: patients with cancer-related psychiatric and existential distress; assay: Existential distress measures (hopelessness, demoralization, death anxiety) combined: effect sizes; format: in vivo, human
Method: as §1, §2, §3, §4
Cancer-related existential distress (demoralization, hopelessness, attitudes and effects associated with disease progression and death) was assessed using the following methods: • The Death Anxiety Scale (DAS) (Templer, 1970)—a 15-item measure that has been used most frequently to assess death anxiety. Items are scored “true” and “false” and then scored as one and zero, respectively. Total scores range between 0-15. Higher scores represent increased severity of death anxiety. Scores below eight are considered normative levels of death anxiety. Templer (1970) reported adequate test-retest reliability (r=0.83) and validity. • The Hopelessness Assessment in Illness (HAI) (Rosenfeld et al., 2011)—an eight-item instrument developed for use in patients with advanced cancer. Total scores range from 0-16. Higher scores indicate higher levels of hopelessness. Data have not been published regarding recommended clinical cut-off scores for this measure. […]

[6] = system: patients with life-threatening cancer; conditions: 6-month follow up; cited from earlier work
[7] = mean score at 3.2 years, p < 0.01 vs baseline
[8] = mean score at 4.5 years, p < 0.05 vs baseline
[9] = mean score at 6.5-8 months, p < 0.001 vs baseline
[10] = mean score at 6.5-8 months, p < 0.05 vs baseline
[11] = second LTFU point (mean 4.5 years)

## CN(C)CCc1c[nH]c2cccc(OP(=O)(O)O)c12 [psilocybin, [3-(2-dimethylaminoethyl)-1H-indol-4-yl] dihydrogen phosphate]
[1]; [7]
  STAI State Anxiety: 33.00
[1]; [8]
  STAI State Anxiety: 34.41
[1]; mean score at 4.5 years, p < 0.01 vs baseline
  STAI Trait Anxiety: 35.78
[1]; [9]
  STAI State Anxiety: 29.84
  STAI Trait Anxiety: 28.23
[2]; [7]
  Beck Depression: 7.75
[2]; mean score at 4.5 years, p < 0.001 vs baseline
  Beck Depression: 5.45
[2]; [9]
  Beck Depression: 5.09
[3]; [7]
  Psychological health: 15.48
[3]; mean score at 3.2 years
  Social relationships: 15.54
  Physical health: 16.33
[3]; mean score at 3.2 years, p < 0.05 vs baseline
  Environmental health: 16.72
[3]; mean score at 4.5 years
  Psychological health: 14.80
  Social relationships: 14.67
  Physical health: 13.89
[3]; [8]
  Environmental health: 17.00
[3]; [9]
  Psychological health: 15.70
[3]; mean score at 6.5-8 months
  Social relationships: 15.27
[3]; [10]
  Physical health: 16.35
  Environmental health: 16.54
[4]; 4.5 year time point
  participants meeting criteria for clinical antidepressant or anxiolytic response and remission: 60-80%
[4]; 6.5-month point
  mean Cohen's d, reductions in symptoms since baseline on primary measures (anxiety and depression): 1.90
  range of Cohen's d, primary measures (anxiety and depression): 1.27-2.67
[4]; 6.5 months after psilocybin administration
  participants meeting criteria for clinical antidepressant or anxiolytic response and remission: 60-80%
[4]; first LTFU (mean 3.2 years)
  mean Cohen's d, reductions in symptoms since baseline on primary measures (anxiety and depression): 1.30
  range of Cohen's d, primary measures (anxiety and depression): 0.93-1.97
[4]; second LTFU (4.5 years, n=14), 50% or greater reduction plus HADS-D≤7 or BDI≤12
  depression symptom remission rates: 50-79%
[4]; second LTFU (4.5 years, n=14), 50% or greater reduction relative to baseline
  percentages of clinical responses for depression on the HADS-D and BDI: 57-79%
[4]; [11]
  mean Cohen's d, reductions in symptoms since baseline on primary measures (anxiety and depression): 1.41
  range of Cohen's d, primary measures (anxiety and depression): 0.86-1.89
[5]; 6.5-month point
  mean Cohen's d, reductions in hopelessness, demoralization and death anxiety since baseline: 1.39
  range of Cohen's d, hopelessness, demoralization and death anxiety: 0.88-2.00
[5]; first LTFU (mean 3.2 years)
  mean Cohen's d, reductions in hopelessness, demoralization and death anxiety since baseline: 1.39
  range of Cohen's d, hopelessness, demoralization and death anxiety: 0.80-1.77
[5]; second LTFU (mean 4.5 years)
  mean Cohen's d, reductions in hopelessness, demoralization and death anxiety since baseline: 1.60
  range of Cohen's d, hopelessness, demoralization and death anxiety: 1.00-2.00
[6]
  participants continuing to show decreases in depressed mood and anxiety: about 80%
